The source of these data is the NIST ThermoML archive (doi:10.1016/j.jct.2004.01.006).

Numbers after ± are expanded uncertainties.

The data set is described as follows: Molar enthalpy of transition or fusion. Conditions: Crystal; Adiabatic calorimetry.

For `O=Cc1ccc(Cl)cc1Cl` [2,4-dichlorobenzaldehyde], the “Molar enthalpy of transition or fusion” value was found to be 20.47 ± 0.07 kJ/mol.
